Measurements: the SangsterLogP compilation

Conditions: pH 7.4

For `N#CC1(NC(=O)[C@@H]2CCCC[C@H]2C(=O)N2CCN(c3nccs3)CC2)CC1`, the logD was 1.3.

Compound `COc1ccc(N(C(=O)c2ccccc2)C(C(=O)NC2CCCC2)c2ccccc2F)c(OC)c1` (stereo not given) has a logD of 3.86.

`Cc1nn(C)c2cc(N3CCN(C(=O)[C@@H]4CCCC[C@H]4C(=O)NC4(C#N)CC4)[C@H](C)C3)ccc12` showed a logD of 2.7.

For `O=S(=O)(Cc1cc(N2CCOCC2)nc(-c2ccccn2)n1)c1ccccc1`, the logD was 1.34.

Compound `CC(C)(C)OC(=O)N1C[C@@H]2CC[C@H]1CN2c1ncc(OCc2ccc(S(C)(=O)=O)cc2)cn1` has a logD of 3.4.

Work on `Cc1nc2nc[nH]n2c(=O)c1CCOC(=O)c1c(F)cccc1F` yielded a logD of 0.16.

`CS(=O)(=O)c1cccc2c3c([nH]c12)CCN(C(=O)[C@@H]1CCCC[C@H]1C(=O)NC1(C#N)CC1)C3` showed a logD of 1.7.

Compound `N#CC1(NC(=O)[C@@H]2CCCC[C@H]2C(=O)N2CCc3[nH]c4ccc(Cl)cc4c3C2)CC1` has a logD of 3.65.

Work on `COc1cc(N2CCN(C(=O)[C@@H]3CCCC[C@H]3C(=O)NC3(C#N)CC3)[C@H](C)C2)ccc1C1CC1` yielded a logD of 3.49.

Work on `Cc1nc2nc[nH]n2c(=O)c1CCOC(=O)c1ccccc1F` yielded a logD of 0.99.

Compound `CC(C)c1nc(N2CCN(c3ncc(OCc4ccncc4C#N)cn3)[C@H](C)C2)no1` has a logD of 3.3.

Compound `N#Cc1ccc(CN2CCN(c3ccc4nnc(C(F)(F)F)n4n3)CC2)cc1` has a logD of 2.9.

In the case of `COc1ccc2[nH]c3c(c2c1)CN(C(=O)[C@@H]1CCCC[C@H]1C(=O)NC1(C#N)CC1)CC3`, the logD is reported as 2.4.

For `COc1cc(OC)c(S(=O)(=O)N2c3ccccc3CCC2C)cc1NC(=O)Cc1ccnc(F)c1` (stereo not given), the logD was 2.49.

In the case of `CC(C)(C)OC(=O)N1CCN(c2ncc(OCc3ccncc3)cn2)CC1`, the logD is reported as 3.4.

Compound `CCn1c(=O)c2c(O)cc(=O)oc2c2ccccc21` has a logD of 1.13.

Work on `CC(C)(C)OC(=O)N1CCN(c2ccc(OCc3ccc(S(C)(=O)=O)cc3)nn2)CC1` yielded a logD of 2.8.

With `C[C@H](C#N)NC(=O)[C@@H]1CCCC[C@H]1C(=O)N1CCc2[nH]c3ccc(F)cc3c2C1` the logD was 3.1.

In the case of `CN1CCC(c2cc(N3CCOCC3)nc(-c3cccc4[nH]ccc34)n2)(S(C)(=O)=O)CC1`, the logD is reported as 1.9.

`CS(=O)(=O)c1cccc(Nc2nccc(Nc3c(Cl)ccc4c3OCO4)n2)c1` showed a logD of 3.13.

For `Cc1nc2nc(-c3cccnc3)[nH]n2c(=O)c1Cc1ccccc1`, the logD was 1.52.

In the case of `CC(C)Oc1cc(OCCN2CCOCC2)cc2ncnc(Nc3c(Cl)ccc4c3OCO4)c12`, the logD is reported as 3.68.

Compound `CCNC(=O)c1cc2c(-n3ccc(C(F)(F)F)n3)c(-c3cncc(C(=O)NC)c3)cnc2[nH]1` has a logD of 2.21.

`CS(=O)(=O)Cc1cc(N2CCOCC2)nc(-c2ccc3[nH]ccc3c2)n1` gave a logD of 2.06.

Compound `CC(C)(C)OC(=O)N1CCN(c2ncc(OCc3ccc(S(C)(=O)=O)cc3)nn2)CC1` has a logD of 2.93.

`C[C@@H]1CN(C(=O)OC(C)(C)C)CCN1c1ncc(OCc2ccc(S(C)(=O)=O)cc2F)cn1` showed a logD of 3.7.

`CS(=O)(=O)C1(c2cc(N3CCOCC3)nc(-c3cccc4[nH]ccc34)n2)CCOCC1` showed a logD of 2.4.

`COc1ccc(N(C(=O)c2ccccc2)C(C(=O)NC[C@@H](C)O)c2ccccc2F)c(OC)c1` (stereo not given in full) showed a logD of 2.55.

Compound `N#CC1(NC(=O)[C@@H]2CCCC[C@H]2C(=O)N2CCN(c3nc(C(F)(F)F)cs3)CC2)CC1` has a logD of 2.4.

With `N#CC1(NC(=O)[C@@H]2CCCC[C@H]2C(=O)N2CCN(c3nc4ccncc4s3)CC2)CC1` the logD was 1.6.

`NS(=O)(=O)c1ccc(Nc2nccc(-c3cnc4ccccn34)n2)cc1` gave a logD of 2.7.

With `CC(C)(C)c1cc2nc3c(c(=O)n2[nH]1)CN(Cc1ccccc1)C3=O` the logD was 1.9.

`CS(=O)(=O)Cc1cc(N2CCOCC2)nc(-c2ccccc2)n1` showed a logD of 1.94.

For `N#CC1(NC(=O)[C@@H]2CCCC[C@H]2C(=O)N2CCc3oc4ccccc4c3C2)CC1`, the logD was 3.01.

Work on `CS(=O)(=O)c1ccc(N2CCN(C(=O)[C@@H]3CCCC[C@H]3C(=O)NCC#N)CC2)cc1` yielded a logD of 0.67.

With `N#CC1(NC(=O)[C@@H]2CCCC[C@H]2C(=O)N2CCc3[nH]c4ccc(C(F)(F)F)cc4c3C2)CC1` the logD was 4.2.

Work on `Cc1ncc(-c2nc(Nc3ccc(N4CCN(C(=O)CO)CC4)cc3)ncc2F)n1C(C)C` yielded a logD of 2.19.

`CCCSc1ncccc1C(=O)NC1CCCCC1` showed a logD of 3.24.

In the case of `O=c1cc(O)c2c(=O)n(-c3ccccc3)c3ccccc3c2o1`, the logD is reported as 0.96.

Work on `CCCSc1c(C(=O)NC2CCCCC2)cnn1C` yielded a logD of 2.99.

`CCOc1cccc2c3c([nH]c12)CCN(C(=O)[C@@H]1CCCC[C@H]1C(=O)NC1(C#N)CC1)C3` showed a logD of 3.1.

In the case of `COc1cc(N2CC3COCC(C2)N3)ccc1Nc1ncc(Cl)c(-c2cnc3ccccn23)n1`, the logD is reported as 3.

Compound `COc1cc(OC)c(S(=O)(=O)N2c3ccccc3Oc3ccccc32)cc1NC(=O)Cc1ccnc(F)c1` has a logD of 3.37.

`CC(=O)c1ncccc1NC(=O)C1CCC(N2C(=O)[C@@H]3[C@@H]4CC[C@@H](C4)[C@@H]3C2=O)CC1` (stereo not given in full) gave a logD of 3.01.

Compound `N#CC1(NC(=O)[C@@H]2CCCC[C@H]2C(=O)N2CCN(c3nc4ncccc4s3)CC2)CC1` has a logD of 1.4.

`CS(=O)(=O)Cc1cc(N2CCOCC2)nc(-c2ccc(NS(C)(=O)=O)cc2)n1` showed a logD of 0.85.

Work on `COc1cc2ncnc(Nc3cccc(Cl)c3F)c2cc1OC1CCN(CC(N)=O)CC1` yielded a logD of 3.1.

Work on `C[C@H]1O[C@@H](n2cnc3c(N)nc(O[C@H]4CC[C@H](C)CC4)nc32)[C@H](O)[C@@H]1O` yielded a logD of 2.35.

`N#CC1(NC(=O)[C@@H]2CCCC[C@H]2C(=O)N2CCN(c3nc4c(s3)COCC4)CC2)CC1` showed a logD of 1.42.

Compound `COc1cc(OC)c(S(=O)(=O)NCc2ccccc2N2CCC(CO)CC2)cc1NC(C)=O` has a logD of 1.03.

For `C[C@@H]1CN(C(=O)OC(C)(C)C)CCN1c1ncc(OCc2ccc(S(C)(=O)=O)cc2C#N)cn1`, the logD was 3.3.

In the case of `Cc1cc(COc2cnc(N3CCN(C(=O)OC(C)(C)C)CC3)nc2)ccn1`, the logD is reported as 3.7.

`Cc1nn(C)c2ccc(N3CCN(C(=O)[C@@H]4CCCC[C@H]4C(=O)NC4(C#N)CC4)[C@H](C)C3)cc12` gave a logD of 2.8.

`CCNC(=O)c1cc2c(-n3ccc(C(F)(F)F)n3)c(-c3cncc(C#N)c3)cnc2[nH]1` gave a logD of 2.62.

`N#Cc1cnc(N2CCN(C(=O)[C@@H]3CCCC[C@H]3C(=O)NC3(C#N)CC3)CC2)s1` showed a logD of 1.2.

`CCNC(=O)c1cc2c(-n3ccc(C(F)(F)F)n3)c(-c3cncc(-c4n[nH]c(=O)o4)c3)cnc2[nH]1` gave a logD of 1.65.

For `CC(C)(C)OC(=O)N1CCN(c2ccc(OCc3ccc(S(C)(=O)=O)cc3)cc2)CC1`, the logD was 3.9.

With `Cc1ncc(-c2ccnc(Nc3ccc(N4CCN(S(C)(=O)=O)CC4)cc3)n2)n1C(C)C` the logD was 2.57.

With `Cc1ncc(-c2nc(Nc3ccc(N4CCOCC4)cc3)ncc2F)n1C(C)C` the logD was 3.01.

`COC1/C=C\OC2(C)Oc3c(C)c(O)c4c(c3C2=O)C(=O)C=C(NC(=O)/C(C)=C\C=C/C(C)C(O)C(C)C(O)C(C)C(OC(C)=O)C1C)C4=O` (stereo not given) gave a logD of 0.7.

Work on `CS(=O)(=O)c1ccc2nc(N3CCN(C(=O)[C@@H]4CCCC[C@H]4C(=O)NC4(C#N)CC4)CC3)sc2c1` yielded a logD of 1.49.

Work on `O=c1cc(O)c2c(=O)n(Cc3ccccc3)c3ccccc3c2o1` yielded a logD of 1.97.

`CC(C)(C)OC(=O)N1CCN(c2ccc(OCc3ccc(S(C)(=O)=O)cc3)cn2)CC1` showed a logD of 3.2.

Work on `C[C@H]1CN(C(=O)OC(C)(C)C)CCN1c1ncc(OCc2ccc(S(C)(=O)=O)cc2)cn1` yielded a logD of 3.5.

`CCCCN1Cc2c(nc3cc(-c4ccco4)[nH]n3c2=O)C1=O` gave a logD of 0.8.

Work on `COc1ccc(N(C(=O)c2ccoc2Cl)C(C(=O)NC[C@@H](C)O)c2ccccc2F)c(OC)c1` (stereo not given in full) yielded a logD of 2.36.

In the case of `COc1c/c(=C2\C=c3ccccc3=N2)[nH]/c1=C\c1[nH]c(C)cc1C`, the logD is reported as 2.55.

Work on `Cc1cc(C(C)Nc2ccccc2)c2nc(N3CCOCC3)cc(=O)n2c1` (stereo not given) yielded a logD of 3.6.

Compound `O=c1cc(-c2ccccc2)nc2cc[nH]n12` has a logD of 1.3.

`COc1cc(OC)c(S(=O)(=O)N2c3ccccc3CCC2C)cc1NC(C)=O` (stereo not given) showed a logD of 1.97.

`Cc1ccc(-c2cccc(-c3nn[nH]n3)c2)cc1` gave a logD of 1.3.

Work on `COc1ccc(N2CCN(C(=O)[C@@H]3CCCC[C@H]3C(=O)NC3(C#N)CC3)CC2)cc1OC` yielded a logD of 1.4.

Compound `C[C@H]1O[C@@H](n2cnc3c(N)nc(OCC4CC45CC5)nc32)[C@H](O)[C@@H]1O` (stereo not given in full) has a logD of 1.78.

For `Nc1ccccc1NC(=O)c1ccc(N2CCOCC2)cc1`, the logD was 1.2.

Compound `CC(=O)NC1CN(c2ccc(Nc3ncc(F)c(-c4cnc(C)n4C(C)C)n3)cc2)C1` has a logD of 2.76.

Compound `COc1ccc(N(C(=O)c2occc2CO)C(C(=O)NC[C@@H](C)O)c2ccccc2F)c(OC)c1` (stereo not given in full) has a logD of 1.37.

In the case of `Cc1sc(N2CCN(C(=O)[C@@H]3CCCC[C@H]3C(=O)NC3(C#N)CC3)CC2)nc1C(F)(F)F`, the logD is reported as 2.87.

`CCNC(=O)c1cc2c(-n3ccc(C(F)(F)F)n3)c(-c3cc(-c4n[nH]c(=O)o4)cnc3OC)cnc2[nH]1` showed a logD of 2.91.

In the case of `N#CC1(NC(=O)[C@@H]2CCCC[C@H]2C(=O)N2CCc3[nH]c4c(F)cccc4c3C2)CC1`, the logD is reported as 3.03.

Work on `Cc1ncc(-c2ccnc(Nc3ccc(S(=O)(=O)CCCN(C)C)cc3)n2)n1C(C)C` yielded a logD of 1.32.

For `CC(C)(C)OC(=O)N1CCN(c2cnc(OCc3ccc(S(C)(=O)=O)cc3)cn2)CC1`, the logD was 3.4.

In the case of `CC(C)(C)OC(=O)N1CCN(c2ncc(OCc3ccncc3F)cn2)CC1`, the logD is reported as 3.6.

With `N#CC1(NC(=O)[C@@H]2CCCC[C@H]2C(=O)N2CCN(c3nc(-c4ccccc4)cs3)CC2)CC1` the logD was 3.5.

`C[C@@H](c1ncncc1F)[C@](O)(Cn1cncn1)c1ccc(F)cc1F` gave a logD of 1.7.

Work on `C[C@H]1COCCN1c1cc(CS(C)(=O)=O)nc(-c2ccc3[nH]ccc3c2)n1` yielded a logD of 2.38.

In the case of `N#Cc1cccnc1-c1ccc(C(=O)Nc2ccccc2N)cc1`, the logD is reported as 1.58.

Work on `N#CC1(NC(=O)[C@@H]2CCCC[C@H]2C(=O)N2CCc3[nH]c4cccc(F)c4c3C2)CC1` yielded a logD of 3.2.

`CS(=O)(=O)Cc1cc(N2CCOCC2)nc(-c2cccc3[nH]ccc23)n1` gave a logD of 1.7.

Work on `Cc1ncc(-c2ccnc(Nc3ccc(N4CCN(S(=O)(=O)CCN(C)C)CC4)cc3)n2)n1C(C)C` yielded a logD of 2.52.

In the case of `CCCN(c1cccnc1)P(=O)(c1ccccc1)c1ccccc1`, the logD is reported as 2.6.

In the case of `N#CC1(NC(=O)[C@@H]2CCCC[C@H]2C(=O)N2CCc3[nH]c4ncccc4c3C2)CC1`, the logD is reported as 2.13.

`COc1cnccc1COc1cnc(N2CCN(C(=O)OC(C)(C)C)CC2)nc1` showed a logD of 3.8.

With `N#CC1(NC(=O)[C@@H]2CCCC[C@H]2C(=O)N2CCc3[nH]c4c(OC(F)(F)F)cccc4c3C2)CC1` the logD was 4.01.

Compound `COc1ccc(N(C(=O)c2occc2Cl)C(C(=O)NC[C@@H](C)O)c2ccccc2F)c(OC)c1` (stereo not given in full) has a logD of 2.18.

For `C[C@@H]1CN(c2ccccc2)CCN1C(=O)[C@@H]1CCCC[C@H]1C(=O)NC1(C#N)CC1`, the logD was 2.35.
